One test has as its target T1, VEGF-A (Homo sapiens, UniProt P15692).
T1 sequence (P15692 27-191 isoform P15692-4): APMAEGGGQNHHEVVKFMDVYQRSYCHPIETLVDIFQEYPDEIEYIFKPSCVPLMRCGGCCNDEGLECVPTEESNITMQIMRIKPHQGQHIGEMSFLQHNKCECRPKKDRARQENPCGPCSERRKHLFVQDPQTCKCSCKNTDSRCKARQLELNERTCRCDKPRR
Kind of test: VEGF-A/heparin competition assay by SPR (Biacore). The note with it: 10 nM VEGF-A, biotinylated low molecular weight heparin, Sensorchip SA. It counts as binding. As to the method:
Heparin or low molecular weight heparin (6 kDa) from SIGMA were biotinylated at the reducing end and immobilized on a Biacore sensorchip. Different concentrations of the compounds of the present invention were co-incubated at a fixed concentration of targets: FGF-2, PDGF-β, VEGF-A or SDF-1α for 30 minutes. The mixture was then injected onto the streptavidin control (control reference) and HP surfaces. Only free growth factor (GF) or chemokine, i.e. the target molecules not bound to compounds of the present invention, were trapped on the heparin surface. From the binding of free targets on heparin, the percentages of inhibition were calculated and then reported in function of compound concentrations. The plot was fitted with a four-parameter model and IC50 was calculated. The 0% inhibition value was obtained for the injection of the studied target in running-buffer, and the 100% inhibition value was obtained for the injection of the studied target co-incubated with 10 μM of low molecular weight heparin 6 kDa.
A VEGF-A/heparin competition assay using the Biacore technology was performed using the following conditions: 10 nM VEGF-A, biotinylated low molecular weight heparin, Reference Streptavidin, Sensorchip SA, HBS-P, Regeneration NaCl 2M.
IC50 values of compounds of the present invention were determined using the Biacore technology for the growth factor and chemokine/heparin competition assays that contained the following proteins: VEGF-A, SDF-1α, FGF-2 and PDGF-β.
On the technique in general: SPR reads the build-up and loss of mass on a sensor chip optically.

Test [1] deals with control and VEGF-A-stimulated angiogenesis (endothelial tubules, HUVEC/NHDF co-culture). Kind of test: In vitro angiogenesis assay (endothelial tubule formation, AngioKit). The test is classed as cell-based, human. Particulars: 30 μM compound; anti-CD31 ELISA and AngioSys image analysis; FIGS. 13-15. The text has this:
These experiments are also known as endothelial tubule formation assays and they are used to evaluate the compound effects on in vitro angiogenesis (the neo-formation of blood vessels from pre-existing ones). This process is critical in tumour development as bloodstream brings all the necessary nutrients and oxygen to cancer cells.
The assay uses a commercially available product (AngioKit) specially designed for screening experiments. The product consists of a 24 or 96-well culture plate containing endothelial and fibroblast cells. A similar assay has been developed “in-house” using 48-well culture plates.
Endothelial cells will, on a ten-day period, develop into a branched network of endothelial tubules or “primitive” blood vessels. This process requires a co-culture with fibroblasts, these latter cells secreting essential growth factors for endothelial cells. At the end of the incubation period (about ten days), angiogenesis is monitored both by ELISA and image analysis software quantifying different blood vessel parameters (number and average length of tubules, field area, number of junctions for example). All reagents and material (except the oligosaccharide compounds, the VEGF-A and the 48-well plate AngioKits) are bought from TCS CellWorks (http://www.tcscellworks.co.uk) which provides: • 24 and 96-well plate AngioKits (including culture medium) • Anti-CD31 (a cell marker specifically expressed on endothelial cells) reagents for ELISA and tubule staining procedures. • AngioSys image analysis software
For home-made 48-well plate AngioKits, NHDF and HUVEC cells were independently purchased while TCS CellWorks culture medium and protocol were used.
The cell medium is replaced with fresh one (day 1) and cells are incubated at 37° C. with the compounds of interest (oligosaccharides and/or angiogenic proteins, such as growth factors). During the course of the experiment, the culture medium (including oligosaccharides and/or angiogenic proteins) is replaced at days 4 and 7.
At day 10, the assay is terminated by the labelling of endothelial cells by an ELISA procedure (indirect colorimetric titration of the endothelial cell number through dosage of the endothelial-specific CD31 marker) and the staining of endothelial tubules. Photographs of stained tubules are taken and analysed with the AngioSys image analysis software.
In the following assay the effects of compounds 239, 240, 246, 247, 248, 249, 252, 254, 255 and 257 on in vitro angiogenesis were measured (all compounds were added at the 30 μM concentration). […] For the data presented in FIG. 13, AngioSys image analyses are shown on FIG. 14. Photographs of endothelial tubules are shown on the side of the anti-CD31 ELISA (see FIGS. 13 and 15).
(In general: In an ELISA, binding on a coated surface is turned into a signal by an enzyme label.)

The subject of test [2] is PDGF-β-induced NHDF proliferation. Kind of test: PDGF-β-induced NHDF proliferation assay. The test is classed as cell-based, human. The note with it: PDGF-β 10 ng/ml; FIGS. 8-12. The protocol: The activities of the compounds of the present invention were tested using a proliferation assay, such as the one described by N. Ali et al., J Pharmacol Sci, 2005, 98, 130-141. A defined number of cells is seeded in each well of a culture plate. In order to stimulate cell proliferation, a growth factor is added in some wells, while others remain unstimulated (basal proliferation conditions). To monitor the effects of substances of interest (oligosaccharides compounds according to the present invention) on basal and growth factor-induced cell proliferation, substances of interest are added at different concentrations (i.e. 0.1, 0.3, 1, 3, 10 or 30 μM) in presence or absence of the growth factor, respectively. After an incubation period of 24 hours, the total number of cells is estimated in all samples (generally through an indirect method, such as incorporation of radioactivity into the newly synthesised DNA or colorimetric assays based on cellular enzyme activities or metabolite production). The total number of cells for the control sample in which no substance of interest nor growth factor have been added is set to 1. The total number of cells in all the other samples is compared to this value in order to obtain the relative proliferation index.
Typically, cells are seeded in 48 or 96-well plates. After 2 h (i.e. the time required for cells to adhere to the support) the normal culture media is replaced by a minimal essential culture media in which cells are grown for 24 h (starvation period). This step is used to reduce cell growth (cell metabolism is slowed down in order to better visualise the growth factor stimulation effect) before adding an angiogenic protein, such as a growth factor i.e. FGF-2 or PDGF-β. No growth factor is added in basal proliferation conditions (independently of the presence or absence of the oligosaccharide of the present invention). To evaluate the inhibition of the oligosaccharide compounds according to the present invention on cell proliferation, the angiogenic protein (growth factor) is added at a fixed concentration (from 5 ng/ml to 10 ng/ml) with increasing amounts of oligosaccharide compounds (0.1, 0.3, 1, 3, 10 or 30 μM), which allows the IC50 value to be estimated (i.e. the oligosaccharide concentration at which the stimulatory effect of the growth factor is inhibited by 50%).
Following addition of the angiogenic protein (growth factor) over a 24 h stimulation period, a commercial reagent containing a substrate for a cellular enzyme is added and incubated for couple of hours. The degradation of the substrate by the enzyme leads to the production of a coloured product which is titrated by absorbance measurement. […]

For orientation: IC50 means the concentration needed to halve the response being measured.

Regarding `C#CCCCOC1OC(COS(=O)(=O)[O-])C(OC2OC(C(=O)[O-])C(OC3OC(COS(=O)(=O)[O-])C(OC4OC(C(=O)[O-])C(OC5OC(COS(=O)(=O)[O-])C(OC6OC(C(=O)[O-])C(OCc7ccccc7)C(OCc7ccccc7)C6OS(=O)(=O)[O-])C(OCc6ccccc6)C5NS(=O)(=O)[O-])C(OCc5ccccc5)C4OS(=O)(=O)[O-])C(OCc4ccccc4)C3NS(=O)(=O)[O-])C(OCc3ccccc3)C2OS(=O)(=O)[O-])C(OCc2ccccc2)C1NS(=O)(=O)[O-].[Na+].[Na+].[Na+].[Na+].[Na+].[Na+].[Na+].[Na+].[Na+].[Na+].[Na+].[Na+]` (stereo not drawn) [Compound 239], the IC50 on VEGF-A is 5.2 nM. The “inhibition of control and/or VEGF-A-stimulated angiogenesis” value in test [1] is reported as “inhibition of control and/or VEGF-A-stimulated angiogenesis”. The “inhibition of PDGF-β-induced NHDF proliferation” value in test [2] was “inhibit PDGF-β proliferation (starting in the micromolar range)”.
As for `C#CCCCOC1OC(COS(=O)(=O)[O-])C(OC2OC(C(=O)[O-])C(OC3OC(COS(=O)(=O)[O-])C(OC4OC(C(=O)[O-])C(OC5OC(COS(=O)(=O)[O-])C(OC6OC(C(=O)[O-])C(OC7OC(COS(=O)(=O)[O-])C(OC8OC(C(=O)[O-])C(OCc9ccccc9)C(OCc9ccccc9)C8OS(=O)(=O)[O-])C(OCc8ccccc8)C7NS(=O)(=O)[O-])C(OCc7ccccc7)C6OS(=O)(=O)[O-])C(OCc6ccccc6)C5NS(=O)(=O)[O-])C(OCc5ccccc5)C4OS(=O)(=O)[O-])C(OCc4ccccc4)C3NS(=O)(=O)[O-])C(OCc3ccccc3)C2OS(=O)(=O)[O-])C(OCc2ccccc2)C1NS(=O)(=O)[O-].[Na+].[Na+].[Na+].[Na+].[Na+].[Na+].[Na+].[Na+].[Na+].[Na+].[Na+].[Na+].[Na+].[Na+].[Na+].[Na+]` (stereo not drawn) [Compound 240], the 50% inhibitory concentration (IC50) at VEGF-A was determined as 4.8 nM. In addition, the “inhibition of control and/or VEGF-A-stimulated angiogenesis” value in test [1] is on record as “inhibition of control and/or VEGF-A-stimulated angiogenesis”. Besides, the “inhibition of PDGF-β-induced NHDF proliferation” value in test [2] is reported as “inhibit PDGF-β proliferation (starting in the micromolar range)”.

(Values after US20110166078A1, “OLIGOSACCHARIDE COMPOUNDS FOR USE IN MOBILISING STEM CELLS” (ENDOTIS PHARMA, priority 2008, published 2011).)
